Values after ≈ are worked out from the molar mass of the structure shown.
Key:
[1] = test system: oral squamous cell carcinoma cells (OC3-IV2); assay: Oxygen consumption rate in intact cells (O2k Oxygraph); type: cell-based, human; settings: 2.5 μM, one independent experiment
Procedure: Oxygen consumption rate (OCR) in intact cells suspension was measured by O2k Oxygraph (Oroboros Instruments). DMSO or 2.5 μM isoplumbagin treated cells were detached from the plate by trypsinization and suspended at 5×10^5 cells/ml in DMEM/KSFM medium supplemented with 10% FBS into the O2k chambers. Oxygen consumption rate of DMSO or isoplumbagin treated cells samples were measured by adding 0.5 μM oligomycin, 0.5 μM FCCP, 1 μM rotenone and 1 μM antimycin A.
FIGS. 6A and 6B show the inhibitory effect of isoplumbagin on mitochondrial function and complex IV activity of oral squamous cell carcinoma cells (OC3-IV2). Oxygen consumption rate (OCR) of OC3-IV2 cells treated with DMSO (as control) or 2.5 μM isoplumbagin were measured by Oroboros instruments (FIG. 6A). […] OC3-IV2 cells treated with DMSO or 2.5 μM isoplumbagin were permeabilized with 5 μM digitonin (Dig) and added indicated substrates and inhibitors, and then mitochondria complex I/IV activity were determined by Oroboros instruments (FIG. 6B). Glu/Mal: glutamate (10 mM) and malate (2 mM), ADP (5 mM), Omy: oligomycin (0.5 μM), FCCP (0.5 nM), Rot: rotenone (1 μM), Ama: antimycin A (2 μM), TMPD: tetramethyl-p-phenylenediamine (0.1 mM), Asc: ascorbate (0.4 mM) and NaN3 5 mM. Data from three independent experiments are presented as mean ±SEM (*P<0.05, paired Student's t-test).

[2] = test system: human non-small cell lung carcinoma cells (H1299); assay: MTT survival assay, H1299; type: cell-based; settings: NCI-H1299, 48 h, read-out: IC50, survival rate
Procedure: According to the present invention, human non-small cell lung carcinoma cell H1299 were obtained from ATCC (ATCC® CRL-5803™) cultured in Roswell Park Memorial Institute (RPMI) 1640 medium (Invitrogen) containing 10% FBS, 1% L-Gln and 1% AA. Cells were maintained in a humidified atmosphere containing 5% CO2 at 37° C., and the culture medium was replaced every 2 days.
Isoplumbagin (AKOS006277326, acquired from AKos GmbH, Steinen, Germany) was dissolved in dimethyl sulfoxide (DMSO) and added to the medium, so that the final concentration of DMSO was less than 0.1%. The survival rate of isoplumbagin on OC3-IV2, U87, H1299 and PC3 cell lines was determined using the 3-(4,5-dimethylthiazol-2-yl)-2,5-diphenyltetrazolium bromide (MTT; Sigma-Aldrich) assays. 3×10^3 cells/well were seeded in 96-well plates. After incubation for 24 h, cells were treated with isoplumbagin at various concentrations (0, 1, 5, 10, 25, 50 and 100 μM) and incubated for a further 48 h. At the end of treatment, 10 μL 5 mg/mL MTT was added to each well. After incubation at 37° C. for 3 h, medium was removed and DMSO was added to each well to dissolve reduced MTT product formazan. The absorbance of dissolved formazan was measured at 550 nm wavelengths by a spectrophotometer. […]

mitochondrial complex IV = assay: Mitochondrial complex activity in permeabilized cells (Oroboros); type: cell-based, human; settings: OC3-IV2 permeabilized with 5 μM digitonin; 2.5 μM
Procedure: For the cell permeabilization and measurement of mitochondrial complex activity in permeabilized cells using Oroboros Instruments, 5×10^5 cells/mL treated with DMSO or 2.5 μM isoplumbagin suspended in 2 mL MiR05 buffer (110 mM D-sucrose, 0.5 mM EGTA, 3.0 mM MgCl2, 60 mM lactobionic acid, 10 mM KH2PO4, 20 mM taurine, 20 mM HEPES, 1 g/L BSA, pH 7.1) were added in O2k Oxygraph chambers. After cells had stabilized at routine respiration, plasma membrane permeabilization was performed by adding 5 μM digitonin and then O2 consumption rate was measured in response to sequential additions of 10 mM glutamate and 2 mM malate or 10 mM succinate, followed by 5 mM ADP, […], 0.5 μM FCCP, 1 μM rotenone, 1 μM antimycin A, 0.1 mM TMPD, 0.4 mM ascorbate and 5 mM NaN3.
FIGS. 6A and 6B show the inhibitory effect of isoplumbagin on mitochondrial function and complex IV activity of oral squamous cell carcinoma cells (OC3-IV2). Oxygen consumption rate (OCR) of OC3-IV2 cells treated with DMSO (as control) or 2.5 μM isoplumbagin were measured by Oroboros instruments (FIG. 6A). […] OC3-IV2 cells treated with DMSO or 2.5 μM isoplumbagin were permeabilized with 5 μM digitonin (Dig) and added indicated substrates and inhibitors, and then mitochondria complex I/IV activity were determined by Oroboros instruments (FIG. 6B). […]

[3] = test system: oral squamous cell carcinoma cells (OC3-IV2); assay: Mitochondrial morphology and distribution by immunofluorescence staining, OC3-IV2; type: cell-based, human; settings: 1 μM or 2.5 μM, 24 hours, anti-TOM20 staining
Procedure: The effects of isoplumbagin on mitochondrial morphology and distribution of OC3-IV2, U87, H1299 and PC3 cell lines were measured by immunofluorescence staining After OC3-IV2, U87, H1299, and PC3 cells were treated with DMSO, 1 μM, or 2.5 μM isoplumbagin for 24 hours, cells were fixed by 4% (v/v) paraformaldehyde and permeabilized by 0.1% (v/v) Triton X-100. Cells were incubated in blocking buffer containing 1% bovine serum albumin. After blocking, cells were incubated overnight with indicated primary antibodies against TOM20 (a mitochondria marker, sc-11415, Santa Cruz), and then incubated with Alexa Fluor 488-conjugated secondary antibodies (A11001, Invitrogen). Nucleus was stained with DAPI, actin was stained with rhodamine phalloidin (A12379, Invitrogen) and cells were mounted using Prolong Gold reagent (P36930, Invitrogen). 63 images were taken by LSM800 confocal microscopes (Zeiss).
FIGS. 5A-5D show the effect of isoplumbagin on mitochondrial morphogenesis and distribution of oral squamous cell carcinoma cells (OC3-IV2), human primary glioblastoma cells (U87), human non-small cell lung carcinoma cells (H1299) and human prostate cancer cells (PC3). Cells treated with either solvent control (DMSO) or isoplumbagin were determined by immunofluorescence staining using anti-TOM20 (mitochondria, green) antibody, rhodamine phalloidin (actin, red) and DAPI (nucleus, blue). […]

SMILES: CC1=CC(=O)c2cccc(O)c2C1=O [isoplumbagin, 5-hydroxy-3-methyl-1,4-naphthoquinone]
- mitochondrial function (oxygen consumption rate) [1]: can reduce mitochondrial function
- IC50 [2]: 0.28 µg/mL (≈ 1.49 µM)
- mitochondrial complex IV activity (mitochondrial complex IV): inhibiting mitochondrial complex IV activity
- mitochondrial morphogenesis and distribution [3]: can alter the mitochondrial morphogenesis and distribution

From patent publication US20210113492A1, “METHOD FOR INHIBITING PROLIFERATION AND METASTASIS OF CANCER CELLS BY USING NAPHTHOQUINONE DERIVATIVE” (National Tsing Hua University, priority 2019, published 2021)
